Our source for the IC50 values is patent US10662183B2, “Inhibitors of myocardin-related transcription factor and serum response factor (MRTF/SRF)-mediated gene transcription and methods for use of the same” (THE REGENTS OF THE UNIVERSITY OF MICHIGAN, priority 2014, dated 2020).

One assay concerns SRE.L-firefly luciferase reporter (Rho/MKL1 pathway) in PC-3 prostate cancer cells. As to the kind of experiment: SRE.L-luciferase reporter assay. Format: cell-based. Conditions: 19 h, PC-3 cells transfected with Gα12Q231L, SRE.L and pRL-TK reporters; compound 19 hrs. The procedure: Seed PC-3 prostate cancer cells (40,000 cells/well) were grown in 96-well plates in 10% FBS containing DMEM medium. Cells were transiently transfected with the Ga12QL activator of the Rho/MKL1 pathway, along with the SRE.L-firefly luciferase reporter construct for 6 hours. Additionally, cells were co-transfected with the TK-Renilla luciferase reporter as an indicator of non-specific compound effects. Various concentrations of the compounds disclosed herein were added to the 96-well plates. Plates were incubated for 19 hours at 37° C. and 5% C02 in 0.5% FBS containing DMEM medium. Cells were lysed with IX Passive Lysis Buffer (Promega). Plates were incubated for 30 minutes at room temperature. Luminescence counts were read with a Victor2 (Perkin-Elmer) plate reader.
One hour prior to cell lysis for the dual luciferase assay, 10 μl: per well of WST1 reagent (Roche) was added to the 96-well plates. Plates were incubated for 1 hour at 37° C. and 5% CO2. Cell viability was measured by WST1 absorbance at 450 nm with a Victor2 (Perkin-Elmer) plate reader.
Biological activity of the compounds disclosed herein were assessed in the SRE.L luciferase reporter assay. PC-3 prostate cancer cells were co-transfected with 2 ng of the Gα12Q231L expression plasmid along with 50 ng of the SRE.L and 7 ng of the pRL-TK luciferase reporter plasmids, as described in the Materials and Methods section. Cells were treated with 0 (vehicle, DMSO alone), 1, 3, 10, 30, and 100 μM of a compound disclosed herein for 19 hrs after transfection before lysis. Luminescence was determined as described in the Materials and Methods section. Just before cell lysis, the viability of the cells was measured using the WST-1 cell proliferation reagent as described in the Materials and Methods section. Data are expressed as percentage of inhibition (DMSO alone=0%). The experiments were performed three separate times to achieve n=3 in triplicate.
As for `CCCOC(=O)N1CCN(C(=O)c2cccc(-c3ccco3)c2)CC1C(=O)Nc1ccc(Cl)cc1` (stereo not drawn) [Example E-013, propyl 2((4-chlorophenyl)carbamoyl)-4-(3-(furan-2-yl)benzoyl)piperazine-1-carboxylate], the IC50 was determined as 18 µM. As to `O=C(Nc1ccc(Cl)cc1)C1CN(C(=O)c2nc3ccccc3[nH]2)CC(F)(F)C1` (stereo not drawn) [Example E-075, 1-(1H-benzo[d]imidazole-2-carbonyl)-N-(4-chlorophenyl)-5,5-difluoropiperidine-3-carboxamide], the IC50 was 0.68 µM. As for `O=C(Nc1ccc(Cl)cc1)C1CCCN(C(=O)c2csc(-c3ccccc3)n2)C1` (stereo not drawn) [Example E-073, N-(4-chlorophenyl)-1-(2-phenylthiazole-4-carbonyl)piperidine-3-carboxamide], the IC50 was found to be 0.45 µM. Same read-out and setting: for `O=C(Nc1ccc(Cl)cc1)C1CCCN(C(=O)c2ccc3[nH]ccc3c2)C1` (stereo not drawn) [Example E-087, N-(4-chlorophenyl)-1-(1H-indole-5-carbonyl)piperidine-3-carboxamide] the value was 0.13 µM. The same measure, in the same setting: for `O=C(Nc1ccc(Cl)cc1)C1CCCN(C(=O)c2cccc(-c3ccc(Cl)o3)c2)C1` (stereo not drawn) [Example E-003, 1-(3-(5-chlorofuran-2-yl)benzoyl)-N-(4-chlorophenyl)piperidine-3-carboxamide] the value was 12 µM; for `CC(C)(C(=O)N1CCCC(C(=O)Nc2ccc(Cl)cc2)C1)c1csc(-c2ccc(F)cc2)n1` (stereo not drawn) [Example E-077, N-(4-chlorophenyl)-1-(2-(2-(4-fluorophenyl)thiazol-4-yl)-2-methylpropanoyl)piperidine-3-carboxamide], 0.81 µM.

In turn, `O=C(Nc1ccc(Cl)cc1)C1CCCN(C(=O)CCc2c[nH]c3ccccc23)C1` (stereo not drawn) [Example E-083, 1-(3-(1H-indol-3-yl)propanoyl)-N-(4-chlorophenyl) piperidine-3-carboxamide] showed an IC50 of 0.67 µM. For `O=C(Nc1ccc(Cl)cc1)C1CCCN(C(=O)c2nc3ccccc3[nH]2)C1` (stereo not drawn) [Example E-089, 1-(1H-benzo[d]imidazole-2-carbonyl)-N-(4-chlorophenyl)piperidine-3-carboxamide], the IC50 is 0.12 µM. Same read-out and setting: under `O=C(Nc1ccc(Cl)cc1)C1CCCN(C(=O)c2cccc(-c3ccco3)c2)C1` (stereo not drawn) [Example E-002, N-(4-chlorophenyl)-1-(3-(furan-2-yl)benzoyl)piperidine-3-carboxamide] stands 7.1 µM. Consider `COC(=O)NC1CC(C(=O)Nc2ccc(Cl)cc2)CN(C(=O)c2cccc(-c3ccco3)c2)C1` (stereo not drawn) [Example E-057, methyl (5-((4-chlorophenyl)carbamoyl)-1-(3-(furan-2-yl)benzoyl)piperidin-3-yl)carbamate], for which the IC50 is 22 µM. Regarding `O=C(c1cccc(-c2ccco2)c1)N1CC(COc2ccc(Cl)cc2)CC(F)(F)C1` (stereo not drawn) [Example E-059, (5-((4-chlorophenoxy)methyl)-3,3-difluoropiperidin-1-yl) (3-(furan-2-yl)phenyl)methanone], the IC50 came to 31 µM. The same measure, in the same setting: for `NC1CC(C(=O)Nc2ccc(Cl)cc2)CN(C(=O)c2cccc(-c3ccco3)c2)C1` (stereo not drawn) [Example E-043, 5-amino-N-(4-chlorophenyl)-1-(3-(furan-2-yl)benzoyl)piperidine-3-carboxamide] the value was 5 µM. As for `Cc1oc(-c2ccccc2)nc1C(=O)N1CCCC(C(=O)Nc2ccc(Cl)cc2)C1` (stereo not drawn) [Example E-069, N-(4-chlorophenyl)-1-(5-methyl-2-phenyloxazole-4-carbonyl)piperidine-3-carboxamide], the IC50 stood at 1.8 µM. For `O=C(Nc1ccc(Cl)cc1)C1CCCN(Cc2ccc(-n3cccn3)cc2)C1` (stereo not drawn) [Example E-114, 1-(4-(1H-pyrazol-1-yl)benzyl)-N-(4-chlorophenyl)piperidine-3-carboxamide], half-maximal inhibition (IC50) was put at 1.6 µM. The same measure, in the same setting: under `O=C(Nc1ccc(Cl)cc1)C1CN(C(=O)c2cccc(-c3ccco3)c2)CCN1C(=O)OCc1ccccc1` (stereo not drawn) [Example E-004, benzyl 2-((4-chlorophenyl)carbamoyl)-4-(3-(furan-2-yl)benzoyl)piperazine-1-carboxylate] stands 1.8 µM. Turning to `CCC(=O)N1CCN(C(=O)c2cccc(-c3ccco3)c2)CC1C(=O)Nc1ccc(Cl)cc1` (stereo not drawn) [Example E-005, N-(4-chlorophenyl)-4-(3-(furan-2-yl)benzoyl)-1-propionylpiperazine-2-carboxamide], the IC50 is 19 µM.

As to `Cc1ccc(-c2cccc(C(=O)N3CCCC(C(=O)Nc4ccc(Cl)cc4)C3)c2)o1` (stereo not drawn) [Example E-029, N-(4-chlorophenyl)-1-(3-(5-methylfuran-2-yl)benzoyl)piperidine-3-carboxamide], the IC50 came to 3.1 µM. `O=C(Nc1ccc(Cl)cc1)C1CCN(C(=O)c2cccc(-c3ccco3)c2)C1` (stereo not drawn) [Example E-107, N-(4-chlorophenyl)-1-(3-(furan-2-yl)benzoyl)pyrrolidine-3-carboxamide] registered an IC50 of 14 µM.

Take `O=C(Nc1ccc(Cl)cc1)C1CCCN(C(=O)c2ccc(-n3cccc3)cc2)C1` (stereo not drawn) [Example E-109, 1-(4-(1H-pyrrol-1-yl)benzoyl)-N-(4-chlorophenyl)piperidine-3-carboxamide]: the IC50 was 6.3 µM. The same measure, in the same setting: under `O=C(c1cccc(-c2ccco2)c1)N1CCCC(F)(C(=O)Nc2ccc(Cl)cc2)C1` (stereo not drawn) [Example E-001, N-(4-chlorophenyl)-3-fluoro-1-(3-(furan-2-yl)benzoyl)piperidine-3-carboxamide] stands 7.3 µM; under `COc1ccc2nc(C(=O)N3CCCC(C(=O)Nc4ccc(Cl)cc4)C3)[nH]c2c1` (stereo not drawn) [Example E-033, N-(4-chlorophenyl)-1-(6-methoxy-1H-benzo[d]imidazole-2-carbonyl)piperidine-3-carboxamide], 2.7 µM. On to `CC(C)NC(=O)N1CCN(C(=O)c2cccc(-c3ccco3)c2)CC1C(=O)Nc1ccc(Cl)cc1` (stereo not drawn) [Example E-010, N2-(4-chlorophenyl)-4-(3-(furan-2-yl)benzoyl)-N1-isopropylpiperazine-1,2-dicarboxamide], for which the midpoint of inhibition, the IC50, lay at 24 µM. On the same count and under the same terms, under `O=C(Nc1ccc(Cl)cc1)C1CCCN(C(=O)c2cccc(-c3cn[nH]c3)c2)C1` (stereo not drawn) [Example E-031, 1-(3-(1H-pyrazol-4-yl)benzoyl)-N-(4-chlorophenyl)piperidine-3-carboxamide] stands 3.4 µM.

`O=C(Nc1ccccc1Cl)C1CCCN(C(=O)c2cccc(-c3ccco3)c2)C1` (stereo not drawn) [Example E-101, N-(2-chlorophenyl)-1-(3-(furan-2-yl)benzoyl)piperidine-3-carboxamide] yielded an IC50 of 5.6 µM.

Molecule `CCNc1ccc(CN2CCCC(C(=O)Nc3ccc(Cl)cc3)C2)cc1` (stereo not drawn) [Example E-113, N-(4-chlorophenyl)-1-(4-(ethylamino)benzyl)piperidine-3-carboxamide] came in with an IC50 of 8 µM. For `Cn1cncc1-c1cccc(C(=O)N2CC(C(=O)Nc3ccc(Cl)cc3)CC(F)(F)C2)c1` (stereo not drawn) [Example E-047, N-(4-chlorophenyl)-5,5-difluoro-1-(3-(1-methyl-1H-imidazol-5-yl)benzoyl)piperidine-3-carboxamide], the IC50 came to 0.31 µM.

Molecule `O=C(Nc1ccc(Cl)cc1)C1CN(C(=O)c2cccc(-c3cccnc3)c2)CC(F)(F)C1` (stereo not drawn) [Example E-100, N-(4-chlorophenyl)-5,5-difluoro-1-(3-(pyridin-3-yl)benzoyl)piperidine-3-carboxamide] had a half-inhibitory concentration (IC50) of 0.91 µM. `O=C(Nc1ccc(Cl)cc1)C1CCCN(C(=O)c2ccc3[nH]ncc3c2)C1` (stereo not drawn) [Example E-082, N-(4-chlorophenyl)-1-(1H-indazole-5-carbonyl)piperidine-3-carboxamide] registered an IC50 of 0.37 µM. In turn, `O=C(Nc1ccc(Cl)cc1)C1CCCN(C(=O)c2cc(-c3ccco3)on2)C1` (stereo not drawn) [Example E-039, N-(4-chlorophenyl)-1-(5-(furan-2-yl)isoxazole-3-carbonyl) piperidine-3-carboxamide] registered an IC50 of 43 µM. `COc1ccc(C(=O)N2CCN(C(=O)c3cccc(-c4ccco4)c3)CC2C(=O)Nc2ccc(Cl)cc2)cc1` (stereo not drawn) [Example E-007, N-(4-chlorophenyl)-4-(3-(furan-2-yl)benzoyl)-1-(4-methoxybenzoyl)piperazine-2-carboxamide] yielded an IC50 of 15 µM.

`O=C(Nc1ccc(Cl)cc1)C1CCCN(C(=O)c2cc3ccccc3[nH]2)C1` (stereo not drawn) [Example E-080, N-(4-chlorophenyl)-1-(1H-indole-2-carbonyl)piperidine-3-carboxamide] yielded an IC50 of 0.31 µM.

The assay is the same for the next values; noted with them: PC-3 cells transfected with Gα12Q231L, SRE.L and pRL-TK reporters; compound 19 hrs.
In turn, `O=C(NC1CC(C(=O)Nc2ccc(Cl)cc2)CN(C(=O)c2cccc(-c3ccco3)c2)C1)c1ccccc1` (single isomer, unassigned) [Example E-055, 5-benzamido-N-(4-chlorophenyl)-1-(3-(furan-2-yl)benzoyl) piperidine-3-carboxamide] showed an IC50 of 2.2 µM.

`O=C(NC1CC(C(=O)Nc2ccc(Cl)cc2)CN(C(=O)c2cccc(-c3ccco3)c2)C1)c1ccccc1` (single isomer, unassigned) [Example E-054, 5-benzamido-N-(4-chlorophenyl)-1-(3-(furan-2-yl)benzoyl) piperidine-3-carboxamide] gave an IC50 of 30 µM.
